From patent publication US20140100107A1, “TERNARY FUNGICIDAL COMPOSITIONS COMPRISING A DITHIINO-TETRACARBOXAMIDE FUNGICIDE” (BAYER INTELLECTUAL PROPERTY GMBH, priority 2011, published 2014)

Tested on: Alternaria solani
Assay: Alternaria test (tomatoes)/preventive
Format: in vivo
Details: preventive spray, evaluated 3 days after inoculation
Method: Alternaria Test (Tomatoes)/Preventive [table] To produce a suitable preparation of active compound, 1 part by weight of active compound is mixed with the stated amounts of solvent and emulsifier, and the concentrate is diluted with water to the desired concentration. To test for preventive activity, young plants are sprayed with the preparation of active compound at the stated rate of application. After the spray coating has dried on, the plants are inoculated with an aqueous spore suspension of Alternaria solani. The plants are then placed in an incubation cabinet at approximately 20° C. and a relative atmospheric humidity of 100%. The test is evaluated 3 days after the inoculation. 0% means an efficacy which corresponds to that of the untreated control while an efficacy of 100% means that no disease is observed.

Structure (SMILES)	Efficacy in % found (activity found) (application rate 10 ppm a.i.) [%]	Efficacy in % found (activity found) (application rate 1 ppm a.i.) [%]
Cn1c(=O)c2sc3c(=O)n(C)c(=O)c3sc2c1=O [(1.1), 2,6-dimethyl-1H,5H-[1,4]dithiino[2,3-c:5,6-c′]dipyrrole-1,3,5,7(2H,6H)-tetrone]	0	–
O=C(NCCc1ncc(C(F)(F)F)cc1Cl)c1ccccc1C(F)(F)F [(2.6), fluopyram]	–	7
CC(C)(C)C(O)(CCc1ccc(Cl)cc1)Cn1cncn1 (stereo not drawn) [(3.47), tebuconazole]	–	21
